Source: the NIST ThermoML archive (doi:10.1021/acs.jced.8b00213)

Legend:
[1] = refractive index (Na D-line) (dimensionless); xn = mol fraction of the nth substance listed; conditions: 100 kPa, Liquid, Standard Abbe refractometry, x1 = 0.25
[2] = xn = mol fraction of the nth substance listed; conditions: 100 kPa, Liquid, x1 = 0.25; for electrical conductivity: Alternating current cell with electrodes; for viscosity: Falling or rolling sphere viscometry; for speed of sound: Single path-length method; for mass density: Vibrating tube method

CCCC[N+](CCCC)(CCCC)Cc1ccccc1.[Cl-] [benzyltributylammonium chloride] + OCCOCCO
Conditions | electrical conductivity, [2] [S/m] | mass density, [2] [kg/m3] | refractive index, [1] | speed of sound, [2] [m/s] | viscosity, [2] [mPa·s]
283.15 K | 0.019 | 1063.94 | 1.4957 | 1706.8 | 961.86
288.15 K | 0.025 | 1060.76 | 1.4945 | 1689.5 | 644.25
293.15 K | 0.032 | 1057.65 | 1.4929 | 1673.2 | 433.54
298.15 K | 0.04 | 1054.57 | 1.4909 | 1658.1 | 310.37
303.15 K | 0.052 | 1051.5 | 1.4893 | 1643.5 | 224.9
308.15 K | 0.066 | 1048.41 | 1.4878 | 1629.5 | 168.37
313.15 K | 0.081 | 1045.31 | 1.486 | 1615.6 | 125.21
318.15 K | 0.099 | 1042.22 | 1.4849 | 1602 | 96.78
323.15 K | 0.115 | 1039.12 | 1.4836 | 1588.6 | 76.23
328.15 K | 0.13 | 1036.03 | 1.4815 | 1575.3 | 62.63
333.15 K | 0.154 | 1032.94 | 1.4804 | 1562.1 | 50.43
338.15 K | 0.178 | 1029.85 | 1.4786 | 1549.2 | 40.68
343.15 K | 0.207 | 1026.78 | 1.4776 | 1536.7 | 32.76

CCCC[N+](CCCC)(CCCC)Cc1ccccc1.[Cl-] [benzyltributylammonium chloride] + OCCOCCOCCO
Conditions | electrical conductivity, [2] [S/m] | mass density, [2] [kg/m3] | refractive index, [1] | speed of sound, [2] [m/s] | viscosity, [2] [mPa·s]
283.15 K | 0.013 | 1077.97 | 1.4936 | 1710.1 | 738.7
288.15 K | 0.017 | 1074.64 | 1.4921 | 1692.4 | 506
293.15 K | 0.021 | 1071.36 | 1.4906 | 1675.8 | 356.9
298.15 K | 0.027 | 1068.09 | 1.4889 | 1659.8 | 256.5
303.15 K | 0.035 | 1064.81 | 1.4874 | 1644.2 | 188.5
308.15 K | 0.043 | 1061.53 | 1.4857 | 1629.2 | 142.4
313.15 K | 0.054 | 1058.25 | 1.4842 | 1614.3 | 109.1
318.15 K | 0.067 | 1054.97 | 1.4827 | 1599.8 | 85.2
323.15 K | 0.082 | 1051.7 | 1.4811 | 1585.4 | 67.7
328.15 K | 0.098 | 1048.43 | 1.4795 | 1571.2 | 54.4
333.15 K | 0.114 | 1045.18 | 1.4779 | 1557.1 | 43.3
338.15 K | 0.145 | 1041.92 | 1.4764 | 1543.3 | 34.9
343.15 K | 0.174 | 1038.69 | 1.4748 | 1530 | 28.3

C[N+](C)(C)Cc1ccccc1.[Cl-] [trimethylbenzylammonium chloride] + OCC(O)CO
Conditions | electrical conductivity, [2] [S/m] | mass density, [2] [kg/m3] | refractive index, [1] | speed of sound, [2] [m/s] | viscosity, [2] [mPa·s]
283.15 K | 0.012 | 1190.87 | 1.5126 | 1992.6 | –
288.15 K | 0.019 | 1187.92 | 1.5114 | 1970.8 | 1874.9
293.15 K | 0.027 | 1184.97 | 1.5102 | 1953 | 1170.9
298.15 K | 0.039 | 1182.02 | 1.5089 | 1937.6 | 753.5
303.15 K | 0.055 | 1178.99 | 1.5078 | 1923.4 | 501.5
308.15 K | 0.077 | 1176.07 | 1.5064 | 1910.1 | 342.7
313.15 K | 0.104 | 1173.14 | 1.5052 | 1897.2 | 238.3
318.15 K | 0.138 | 1170.19 | 1.5039 | 1884.6 | 171.8
323.15 K | 0.181 | 1167.23 | 1.5027 | 1872.3 | 126.7
328.15 K | 0.231 | 1164.25 | 1.5014 | 1860 | 95.4
333.15 K | 0.283 | 1161.27 | 1.5002 | 1847.9 | 73
338.15 K | 0.34 | 1158.29 | 1.4989 | 1835.8 | 58.2
343.15 K | 0.413 | 1155.33 | 1.4977 | 1824.2 | 46.3

C[N+](C)(C)Cc1ccccc1.[Cl-] [trimethylbenzylammonium chloride] + OCCO
Conditions | electrical conductivity, [2] [S/m] | mass density, [2] [kg/m3] | refractive index, [1] | speed of sound, [2] [m/s] | viscosity, [2] [mPa·s]
283.15 K | 0.263 | 1110.06 | 1.4995 | 1856.7 | 101.9
288.15 K | 0.32 | 1107 | 1.498 | 1843.6 | 76.1
293.15 K | 0.391 | 1103.95 | 1.4966 | 1830.8 | 58.2
298.15 K | 0.461 | 1100.92 | 1.4951 | 1818 | 45.3
303.15 K | 0.552 | 1097.89 | 1.4935 | 1805.3 | 35.9
308.15 K | 0.643 | 1094.87 | 1.4921 | 1792.7 | 29
313.15 K | 0.75 | 1091.85 | 1.4907 | 1780.2 | 23.9
318.15 K | 0.872 | 1088.84 | 1.4893 | 1767.8 | 19.9
323.15 K | 0.997 | 1085.83 | 1.4878 | 1755.4 | 16.8
328.15 K | 1.12 | 1082.83 | 1.4864 | 1743 | 14.3
333.15 K | 1.25 | 1079.82 | 1.4849 | 1730.7 | 12.3
338.15 K | 1.41 | 1076.82 | 1.4835 | 1718.5 | 10.7
343.15 K | 1.56 | 1073.83 | 1.482 | 1706.6 | 9.5

C[N+](C)(C)Cc1ccccc1.[Cl-] [trimethylbenzylammonium chloride] + OCCOCCO
Conditions | electrical conductivity, [2] [S/m] | mass density, [2] [kg/m3] | refractive index, [1] | speed of sound, [2] [m/s] | viscosity, [2] [mPa·s]
283.15 K | 0.088 | 1120.06 | 1.4954 | 1782.6 | 263.4
288.15 K | 0.109 | 1116.91 | 1.494 | 1769 | 185.4
293.15 K | 0.132 | 1113.75 | 1.4925 | 1755.8 | 134.1
298.15 K | 0.165 | 1110.6 | 1.4911 | 1742.9 | 98.6
303.15 K | 0.201 | 1107.46 | 1.4897 | 1730.2 | 74.8
308.15 K | 0.254 | 1104.33 | 1.4884 | 1717.7 | 57.9
313.15 K | 0.311 | 1101.21 | 1.4869 | 1705.3 | 44.4
318.15 K | 0.356 | 1098.09 | 1.4855 | 1693 | 34.8
323.15 K | 0.398 | 1094.99 | 1.4841 | 1680.8 | 27.8
328.15 K | 0.474 | 1091.89 | 1.4826 | 1668.7 | 23.2
333.15 K | 0.539 | 1088.79 | 1.4813 | 1656.6 | 18.7
338.15 K | 0.611 | 1085.7 | 1.4798 | 1644.7 | 16
343.15 K | 0.681 | 1082.63 | 1.4784 | 1633.1 | 14.2
